The record followed here is patent US11548888B2, “KRas G12C inhibitors” (Mirati Therapeutics, Inc., priority 2019, dated 2023).

By IC50 is commonly meant the concentration needed to halve the response being measured. High values mean a need for much substance, low ones inhibition by little substance.

T1 sequence (P01116 1-188 isoform P01116-2 G12C): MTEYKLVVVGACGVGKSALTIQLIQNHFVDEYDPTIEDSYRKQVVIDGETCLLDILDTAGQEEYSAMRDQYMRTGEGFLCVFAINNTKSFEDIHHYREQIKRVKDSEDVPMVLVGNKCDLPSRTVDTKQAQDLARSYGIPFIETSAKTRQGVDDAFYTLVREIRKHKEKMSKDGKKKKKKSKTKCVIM

The experiment addresses T1, KRas G12C (Homo sapiens, UniProt P01116, G12C).
T1 construct: NCI-H358 cells (ATCC CRL-5807) express KRas G12C
As to the kind of experiment: Inhibition of KRas G12C-dependent cell growth: Phospho-ERK in NCI-H358 cells. The class given is cell-based. Particulars: NCI-H358 cells expressing KRas G12C; Phospho-ERK (Thr202/Tyr204) normalized to GAPDH; 3 hours compound; 4 parameter fit. The protocol:
The cellular inhibition of KRAs G12C by exemplary compounds of the present invention was determined by measuring the amount of a downstream marker of KRas activity, phosphorylated ERK (“Phospho-ERK”).
NCI-H358 cells (ATCC CRL-5807) express KRas G12C and were grown in RPMI medium supplemented with 10% fetal bovine serum, penicillin/streptomycin and 10 mM HEPES. Cells were plated in poly-D-Lysine coated 96-well plates at a concentration of 50,000 cells/well and allowed to attach for 8-12 hours. Diluted compounds were then added at a final concentration of 0.5% DMSO. After 3 hours, the medium was removed, 150 μL of 4% formaldehyde was added and the plates were incubated for 20 minutes. The plates were washed with PBS, and permeabilized using 150 μL of ice cold 100% methanol for 10 minutes. Non-specific antibody binding to the plates was blocked using 100 μL Licor Blocking Buffer (Li-Cor Biotechnology, Lincoln Nebr.) for 1 hour at room temperature. Positive control samples and samples lacking cells were parallel processed with test samples as standards.
The amount Phospho-ERK was determined using an antibody specific for the phosphorylated form of ERK and compared to the amount of GAPDH. Primary antibodies used for detection were added as follows: Phospho-ERK (Cell Signaling cs9101) diluted 1:500 and GAPDH (Millipore MAB374) diluted 1:5000 in Licor block+0.05% Tween 20. The plates were incubated for 2 hours at room temperature. The plates were washed with PBS+0.05% Tween 20.
Secondary antibodies used to visualize primary antibodies were added as follows: Anti-rabbit-680 diluted 1:1000 and Anti-mouse-800 diluted 1:1000 in Licor Block+0.05% Tween 20 and incubated for 1 hour at room temperature. The plates were washed with PBS+0.05% Tween 20. A 100 μL aliquot of PBS was added to each well and the plates were read on a LICOR AERIUS plate reader.
The pERK(Thr202/Tyr204) signal was normalized with the GAPDH signal and percent of DMSO control values were calculated. IC50 values were generated using a 4 parameter fit of the dose response curve.
The molecule `C=C(F)C(=O)N1CCN(c2nc(OC[C@@H]3CC(F)(F)CN3C)nc3c(F)c(-c4cccc5cccc(Cl)c45)ncc23)C[C@@H]1CC#N` [Example 21, 2-((S)-4-(7-(8-chloronaphthalen-1-yl)-2-(((S)-4,4-difluoro-1-methylpyrrolidin-2-yl)methoxy)-8-fluoropyrido[4,3-d]pyrimidin-4-yl)-1-(2-fluoroacryloyl)piperazin-2-yl)acetonitrile] returned an IC50 of 105 nM. Turning to `C=C(F)C(=O)N1CCN(c2nc(OC[C@@H]3C[C@@H](OC)CN3C)nc3c(F)c(-c4cccc5cccc(Cl)c45)ncc23)C[C@@H]1CC#N` [Example 22, 2-[(2S)-4-[7-(8-chloro-1-naphthyl)-8-fluoro-2-[[(2S,4R)-4-methoxy-1-methyl-pyrrolidin-2-yl]methoxy]pyrido[4,3-d]pyrimidin-4-yl]-1-(2-fluoroprop-2-enoyl)piperazin-2-yl]acetonitrile], it took 38 nM to reach half-maximal inhibition (IC50).

Consider `CN1CCC[C@H]1COc1nc(N2CCN(C(=O)/C=C/CF)[C@@H](CC#N)C2)c2cnc(-c3cccc4cccc(Cl)c34)c(F)c2n1` [Example 23, 2-((S)-4-(7-(8-chloronaphthalen-1-yl)-8-fluoro-2-(((S)-1-methylpyrrolidin-2-yl)methoxy)pyrido[4,3-d]pyrimidin-4-yl)-1-((E)-4-fluorobut-2-enoyl)piperazin-2-yl)acetonitrile], for which 18 nM corresponded to half-maximal inhibition (IC50).

As for `Cc1cccc2cccc(-c3ncc4c(N5CCN(C(=O)/C=C/CF)[C@@H](CC#N)C5)nc(OC[C@@H]5CC(F)(F)CN5C)nc4c3F)c12` [Example 24, 2-((S)-4-(2-(((S)-4,4-difluoro-1-methylpyrrolidin-2-yl)methoxy)-8-fluoro-7-(8-methylnaphthalen-1-yl)pyrido[4,3-d]pyrimidin-4-yl)-1-((E)-4-fluorobut-2-enoyl)piperazin-2-yl)acetonitrile], the IC50 is 109 nM.

Regarding `CN1CC(F)(F)C[C@H]1COc1nc(N2CCN(C(=O)/C=C/CF)[C@@H](CC#N)C2)c2cnc(-c3cccc4cccc(Cl)c34)c(F)c2n1` [Example 25, 2-((S)-4-(7-(8-chloronaphthalen-1-yl)-2-(((S)-4,4-difluoro-1-methylpyrrolidin-2-yl)methoxy)-8-fluoropyrido[4,3-d]pyrimidin-4-yl)-1-((E)-4-fluorobut-2-enoyl)piperazin-2-yl)acetonitrile], the midpoint of inhibition, the IC50, lay at 13 nM. The molecule `CO[C@@H]1C[C@@H](COc2nc(N3CCN(C(=O)/C=C/CF)[C@@H](CC#N)C3)c3cnc(-c4cccc5cccc(C)c45)c(F)c3n2)N(C)C1` [Example 26, 2-[(2S)-1-[(E)-4-fluorobut-2-enoyl]-4-[8-fluoro-2-[[(2S,4R)-4-methoxy-1-methyl-pyrrolidin-2-yl]methoxy]-7-(8-methyl-1-naphthyl)pyrido[4,3-d]pyrimidin-4-yl]piperazin-2-yl]acetonitrile] returned an IC50 of 55 nM. Under `CO[C@@H]1C[C@@H](COc2nc(N3CCN(C(=O)/C=C/CF)[C@@H](CC#N)C3)c3cnc(-c4cccc5cccc(Cl)c45)c(F)c3n2)N(C)C1` [Example 27, 2-[(2S)-4-[7-(8-chloro-1-naphthyl)-8-fluoro-2-[[(2S,4R)-4-methoxy-1-methyl-pyrrolidin-2-yl]methoxy]pyrido[4,3-d]pyrimidin-4-yl]-1-[(E)-4-fluorobut-2-enoyl]piperazin-2-yl]acetonitrile] stands 30 nM. `C=C(F)C(=O)N1CCN(c2nc(OCCCN3C[C@@H]4C[C@H]3CO4)nc3c(F)c(-c4cccc5cccc(C)c45)ncc23)C[C@@H]1CC#N` [Example 28, 2-[(2S)-4-[8-fluoro-7-(8-methyl-1-naphthyl)-2-[3-[(1S,4S)-2-oxa-5-azabicyclo[2.2.1]heptan-5-yl]propoxy]pyrido[4,3-d]pyrimidin-4-yl]-1-(2-fluoroprop-2-enoyl)piperazin-2-yl]acetonitrile] showed an IC50 of 260 nM.

As for `C=C(F)C(=O)N1CCN(c2nc(OCCCN3C[C@@H]4C[C@H]3CO4)nc3c(F)c(-c4cccc5cccc(Cl)c45)ncc23)C[C@@H]1CC#N` [Example 29, 2-[(2S)-4-[7-(8-chloro-1-naphthyl)-8-fluoro-2-[3-[(1S,4S)-2-oxa-5-azabicyclo[2.2.1]heptan-5-yl]propoxy]pyrido[4,3-d]pyrimidin-4-yl]-1-(2-fluoroprop-2-enoyl)piperazin-2-yl]acetonitrile], the IC50 turned out to be 85 nM. The result for `Cc1cccc2cccc(-c3ncc4c(N5CCN(C(=O)/C=C/CF)[C@@H](CC#N)C5)nc(OCCCN5C[C@@H]6C[C@H]5CO6)nc4c3F)c12` [Example 30, 2-[(2S)-1-[(E)-4-fluorobut-2-enoyl]-4-[8-fluoro-7-(8-methyl-1-naphthyl)-2-[3-[(1S,4S)-2-oxa-5-azabicyclo[2.2.1]heptan-5-yl]propoxy]pyrido[4,3-d]pyrimidin-4-yl]piperazin-2-yl]acetonitrile] reads 131 nM.

Molecule `N#CC[C@H]1CN(c2nc(OCCCN3C[C@@H]4C[C@H]3CO4)nc3c(F)c(-c4cccc5cccc(Cl)c45)ncc23)CCN1C(=O)/C=C/CF` [Example 31, 2-[(2S)-4-[7-(8-chloro-1-naphthyl)-8-fluoro-2-[3-[(1S,4S)-2-oxa-5-azabicyclo[2.2.1]heptan-5-yl]propoxy]pyrido[4,3-d]pyrimidin-4-yl]-1-[(E)-4-fluorobut-2-enoyl]piperazin-2-yl]acetonitrile] had an IC50 of 33 nM. In turn, `C=C(F)C(=O)N1CCN(c2nc(OC[C@@H]3CCCN3C)nc3c(Cl)c(-c4cccc5cccc(C)c45)ncc23)C[C@@H]1CC#N` [Example 32, 2-[(2S)-4-[8-chloro-7-(8-methyl-1-naphthyl)-2-[[(2S)-1-methylpyrrolidin-2-yl]methoxy]pyrido[4,3-d]pyrimidin-4-yl]-1-(2-fluoroprop-2-enoyl)piperazin-2-yl]acetonitrile] showed an IC50 of 137 nM. The result for `C=C(F)C(=O)N1CCN(c2nc(OC[C@@H]3CCCN3C)nc3c(C)c(-c4cccc5cccc(C)c45)ncc23)C[C@@H]1CC#N` [Example 33, 2-[(2S)-1-(2-fluoroprop-2-enoyl)-4-[8-methyl-7-(8-methyl-1-naphthyl)-2-[[(2S)-1-methylpyrrolidin-2-yl]methoxy]pyrido[4,3-d]pyrimidin-4-yl]piperazin-2-yl]acetonitrile] reads 79 nM; that for `C=C(F)C(=O)N1CCN(c2nc(OC[C@@H]3C[C@@H](OC)CN3C)nc3c(F)c(-c4cncc5cccc(C)c45)ncc23)C[C@@H]1CC#N` [Example 34, 2-[(2S)-4-[8-fluoro-2-[[(2S,4R)-4-methoxy-1-methyl-pyrrolidin-2-yl]methoxy]-7-(5-methyl-4-isoquinolyl)pyrido[4,3-d]pyrimidin-4-yl]-1-(2-fluoroprop-2-enoyl)piperazin-2-yl]acetonitrile], 45 nM.

`C=C(F)C(=O)N1CCN(c2nc(OC[C@H]3CCCN3C)nc3c(F)c(-c4cccc5cccc(Cl)c45)ncc23)C[C@@H]1CC#N` [Example 35, 2-[(2S)-4-[7-(8-chloro-1-naphthyl)-8-fluoro-2-[[(2R)-1-methylpyrrolidin-2-yl]methoxy]pyrido[4,3-d]pyrimidin-4-yl]-1-(2-fluoroprop-2-enoyl)piperazin-2-yl]acetonitrile] returned an IC50 of 27 nM.
